Converted amounts (≈) assume the structure as drawn. Each block holds one molecule with its values, some of them ahead of it. The source made the active and inactive calls. No cut-off for these calls is given here.
Legend:
[1] = Half life in rat liver microsomes; assay type: ADME
[2] = Half life in monkey liver microsomes; assay type: ADME, Macaca mulatta; details: rhesus monkey
[3] = Half life in mouse liver microsomes; assay type: ADME
[4] = Half life in human liver microsomes; assay type: ADME
[5] = Solubility in water at neutral pH; assay type: physicochemical
[6] = target: Voltage-gated inwardly rectifying potassium channel KCNH2 (Homo sapiens, UniProt Q12809); test: Inhibition of human ERG by patch clamp cellular assay
Voltage-gated inwardly rectifying potassium channel KCNH2, sequence (Q12809 whole entry): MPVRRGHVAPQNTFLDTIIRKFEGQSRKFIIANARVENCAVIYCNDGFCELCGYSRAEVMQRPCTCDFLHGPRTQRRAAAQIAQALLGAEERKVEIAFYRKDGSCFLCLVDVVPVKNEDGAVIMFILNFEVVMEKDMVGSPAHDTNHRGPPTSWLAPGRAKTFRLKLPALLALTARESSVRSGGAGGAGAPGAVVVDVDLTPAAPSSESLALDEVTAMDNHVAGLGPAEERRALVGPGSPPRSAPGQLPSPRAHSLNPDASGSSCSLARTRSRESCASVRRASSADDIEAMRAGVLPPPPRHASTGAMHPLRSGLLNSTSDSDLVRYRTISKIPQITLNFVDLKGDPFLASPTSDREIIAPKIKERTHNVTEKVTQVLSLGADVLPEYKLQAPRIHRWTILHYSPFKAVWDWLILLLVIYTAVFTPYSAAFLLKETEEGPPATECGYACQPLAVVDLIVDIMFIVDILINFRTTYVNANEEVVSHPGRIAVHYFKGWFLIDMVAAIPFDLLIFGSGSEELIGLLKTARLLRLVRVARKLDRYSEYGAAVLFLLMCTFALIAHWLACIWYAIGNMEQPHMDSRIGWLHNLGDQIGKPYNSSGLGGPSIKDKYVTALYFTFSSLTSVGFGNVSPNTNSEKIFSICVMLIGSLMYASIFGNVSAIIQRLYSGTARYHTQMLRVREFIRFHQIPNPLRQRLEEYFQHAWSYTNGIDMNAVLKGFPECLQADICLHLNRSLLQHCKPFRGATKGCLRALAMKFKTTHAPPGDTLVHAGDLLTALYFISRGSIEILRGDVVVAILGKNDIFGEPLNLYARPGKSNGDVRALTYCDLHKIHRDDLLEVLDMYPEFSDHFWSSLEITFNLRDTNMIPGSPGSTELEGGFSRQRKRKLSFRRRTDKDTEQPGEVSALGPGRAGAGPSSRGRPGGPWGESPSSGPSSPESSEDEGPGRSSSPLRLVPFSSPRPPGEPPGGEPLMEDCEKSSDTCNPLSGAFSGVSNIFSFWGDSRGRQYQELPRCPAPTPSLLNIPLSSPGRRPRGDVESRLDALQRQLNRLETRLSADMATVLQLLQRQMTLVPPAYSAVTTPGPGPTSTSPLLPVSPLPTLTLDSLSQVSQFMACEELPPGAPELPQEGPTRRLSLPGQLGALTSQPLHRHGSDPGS

Mus musculus [7] = test: Toxicity in human SUP-M2 cells xenografted SCID mouse assessed as body weight loss at 55 mg/kg, po BID for 10 days; assay type: organism-based; parameters: dose 55 mg/kg, route oral; details: in vivo, 240 h
Mus musculus [8] = test: Toxicity in human SUP-M2 cells xenografted SCID mouse assessed as incidences of overt toxicity at 55 mg/kg, po BID for 10 days; assay type: organism-based; parameters: dose 55 mg/kg, route oral; details: in vivo, 240 h
Brain [9] = test: (§1) Drug concentration in brain of human SUP-M2 cells xenografted SCID mouse at 30 mg/kg, po measured after 2 hrs; assay type: ADME, organism-based; parameters: dose 30 mg/kg, route oral; details: in vivo, 2 h
Cytochrome P450 3A4 = Cytochrome P450 3A4 (Homo sapiens, UniProt P08684); test: Inhibition of CYP3A4 (unknown origin); assay type: ADME
Cytochrome P450 3A4, sequence (P08684 whole entry): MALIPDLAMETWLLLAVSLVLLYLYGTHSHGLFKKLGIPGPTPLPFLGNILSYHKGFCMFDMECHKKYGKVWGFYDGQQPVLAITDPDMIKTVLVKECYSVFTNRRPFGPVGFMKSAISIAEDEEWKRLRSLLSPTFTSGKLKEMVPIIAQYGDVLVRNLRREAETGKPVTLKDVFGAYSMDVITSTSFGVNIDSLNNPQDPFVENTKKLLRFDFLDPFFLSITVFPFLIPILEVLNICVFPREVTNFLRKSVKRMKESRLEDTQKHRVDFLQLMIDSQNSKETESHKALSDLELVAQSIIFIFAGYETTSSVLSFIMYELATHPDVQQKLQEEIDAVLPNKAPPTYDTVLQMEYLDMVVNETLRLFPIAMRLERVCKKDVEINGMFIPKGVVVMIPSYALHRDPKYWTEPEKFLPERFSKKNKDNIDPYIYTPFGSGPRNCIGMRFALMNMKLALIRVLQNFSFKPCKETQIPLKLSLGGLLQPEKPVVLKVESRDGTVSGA

Cytochrome P450 1A2 = target: T1, Cytochrome P450 1A2 (Homo sapiens, UniProt P05177); test: Inhibition of CYP1A2 (unknown origin); assay type: ADME
T1 sequence (P05177 whole entry): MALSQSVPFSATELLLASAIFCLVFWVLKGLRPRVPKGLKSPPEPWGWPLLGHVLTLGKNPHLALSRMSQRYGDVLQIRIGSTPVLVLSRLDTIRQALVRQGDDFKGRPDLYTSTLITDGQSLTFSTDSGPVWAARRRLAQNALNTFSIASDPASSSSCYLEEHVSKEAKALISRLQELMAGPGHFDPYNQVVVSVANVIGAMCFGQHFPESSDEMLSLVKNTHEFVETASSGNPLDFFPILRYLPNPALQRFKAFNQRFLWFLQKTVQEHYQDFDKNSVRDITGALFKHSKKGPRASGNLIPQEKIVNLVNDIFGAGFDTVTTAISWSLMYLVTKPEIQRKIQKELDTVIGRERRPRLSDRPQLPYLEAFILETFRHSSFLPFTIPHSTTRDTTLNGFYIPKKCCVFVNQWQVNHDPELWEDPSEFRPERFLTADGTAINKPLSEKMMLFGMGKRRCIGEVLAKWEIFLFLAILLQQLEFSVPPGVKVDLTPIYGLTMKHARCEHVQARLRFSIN

[10] = Plasma concentration in human SUP-M2 cells xenografted SCID mouse at 30 mg/kg, po measured after 16 hrs; assay type: ADME, organism-based; parameters: dose 30 mg/kg, route oral
Cytochrome P450 2C9 = Cytochrome P450 2C9 (Homo sapiens, UniProt P11712); test: Inhibition of CYP2C9 (unknown origin); assay type: ADME
Cytochrome P450 2C9, sequence (P11712 whole entry): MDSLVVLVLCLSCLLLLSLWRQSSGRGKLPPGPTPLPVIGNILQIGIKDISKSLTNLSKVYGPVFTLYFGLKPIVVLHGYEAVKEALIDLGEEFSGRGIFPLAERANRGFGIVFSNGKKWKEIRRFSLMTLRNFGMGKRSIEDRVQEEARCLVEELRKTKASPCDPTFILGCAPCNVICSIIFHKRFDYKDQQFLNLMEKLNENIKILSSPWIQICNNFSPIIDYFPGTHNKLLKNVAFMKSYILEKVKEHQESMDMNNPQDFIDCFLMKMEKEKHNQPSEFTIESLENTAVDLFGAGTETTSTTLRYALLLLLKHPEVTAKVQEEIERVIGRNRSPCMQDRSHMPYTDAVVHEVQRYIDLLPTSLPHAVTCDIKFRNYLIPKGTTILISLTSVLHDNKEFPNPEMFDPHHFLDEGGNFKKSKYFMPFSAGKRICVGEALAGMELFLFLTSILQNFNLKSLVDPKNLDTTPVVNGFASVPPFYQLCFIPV

Cytochrome P450 2D6 = Cytochrome P450 2D6 (Homo sapiens, UniProt P10635); test: Inhibition of CYP2D6A (unknown origin); assay type: ADME
Cytochrome P450 2D6, sequence (P10635 whole entry): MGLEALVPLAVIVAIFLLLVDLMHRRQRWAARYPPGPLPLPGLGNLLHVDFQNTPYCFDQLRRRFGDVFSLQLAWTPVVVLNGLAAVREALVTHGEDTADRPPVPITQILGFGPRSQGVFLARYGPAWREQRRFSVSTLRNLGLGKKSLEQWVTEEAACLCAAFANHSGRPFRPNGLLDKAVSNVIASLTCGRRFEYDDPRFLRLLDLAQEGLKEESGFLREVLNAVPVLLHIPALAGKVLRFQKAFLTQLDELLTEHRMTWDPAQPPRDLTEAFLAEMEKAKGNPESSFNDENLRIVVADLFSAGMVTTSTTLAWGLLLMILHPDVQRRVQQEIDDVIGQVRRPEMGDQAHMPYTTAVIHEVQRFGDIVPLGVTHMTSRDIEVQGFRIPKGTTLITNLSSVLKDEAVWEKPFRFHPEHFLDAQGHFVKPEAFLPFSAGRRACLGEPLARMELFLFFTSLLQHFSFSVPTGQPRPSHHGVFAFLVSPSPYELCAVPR

[11] = Drug concentration in brain of human SUP-M2 cells xenografted SCID mouse at 30 mg/kg, po measured after 16 hrs; assay type: ADME, organism-based; parameters: dose 30 mg/kg, route oral; details: read-out: Drug uptake
Cytochrome P450 2C19 = Cytochrome P450 2C19 (Homo sapiens, UniProt P33261); test: Inhibition of CYP2C19 (unknown origin); assay type: ADME
Cytochrome P450 2C19, sequence (P33261 whole entry): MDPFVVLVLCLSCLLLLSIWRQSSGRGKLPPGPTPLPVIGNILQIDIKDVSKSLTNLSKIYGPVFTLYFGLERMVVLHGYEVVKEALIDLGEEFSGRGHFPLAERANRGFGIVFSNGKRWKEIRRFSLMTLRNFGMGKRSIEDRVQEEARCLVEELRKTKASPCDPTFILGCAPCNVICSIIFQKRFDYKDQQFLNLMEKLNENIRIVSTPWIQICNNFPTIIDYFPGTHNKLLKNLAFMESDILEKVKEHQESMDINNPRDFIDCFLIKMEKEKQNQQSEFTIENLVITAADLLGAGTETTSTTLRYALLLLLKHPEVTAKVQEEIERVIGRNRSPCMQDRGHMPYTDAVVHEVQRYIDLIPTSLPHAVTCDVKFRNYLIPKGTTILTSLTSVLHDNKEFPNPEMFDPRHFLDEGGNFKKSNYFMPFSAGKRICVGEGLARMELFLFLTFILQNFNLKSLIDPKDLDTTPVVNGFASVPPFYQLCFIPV

Mus musculus [12] = test: Toxicity in human SUP-M2 cells xenografted SCID mouse assessed as incidences of overt toxicity at 30 mg/kg, po BID for 10 days; assay type: organism-based; parameters: dose 30 mg/kg, route oral; details: in vivo, 240 h
Mus musculus [13] = test: Toxicity in human SUP-M2 cells xenografted SCID mouse assessed as body weight loss at 30 mg/kg, po BID for 10 days; assay type: organism-based; parameters: dose 30 mg/kg, route oral; details: in vivo, 240 h
Plasma [14] = test: (§2) Plasma concentration in human SUP-M2 cells xenografted SCID mouse at 30 mg/kg, po measured after 2 hrs; assay type: ADME, organism-based; parameters: dose 30 mg/kg, route oral; details: in vivo, 2 h
Brain [15] = test: (§3) Drug concentration in brain of human SUP-M2 cells xenografted SCID mouse at 30 mg/kg, po measured after 6 hrs; assay type: ADME, organism-based; parameters: dose 30 mg/kg, route oral; details: in vivo, 6 h
Plasma [16] = test: (§4) Plasma concentration in human SUP-M2 cells xenografted SCID mouse at 30 mg/kg, po measured after 6 hrs; assay type: ADME, organism-based; parameters: dose 30 mg/kg, route oral; details: in vivo, 6 h
[17] = as §1; assay type: ADME, organism-based; parameters: dose 30 mg/kg, route oral; details: SCID, brain, read-out: Drug uptake
[18] = as §2; assay type: ADME, organism-based; parameters: dose 30 mg/kg, route oral; details: SCID, plasma
[19] = as §3; assay type: ADME, organism-based; parameters: dose 30 mg/kg, route oral; details: SCID, brain, read-out: Drug uptake
[20] = as §4; assay type: ADME, organism-based; parameters: dose 30 mg/kg, route oral; details: SCID, plasma
[21] = Oral bioavailability in Sprague-Dawley rat at 5 mg/kg; assay type: ADME, organism-based; details: in vivo
[22] = AUC (0 to infinity) in Sprague-Dawley rat at 1 mg/kg, iv; assay type: ADME, organism-based; parameters: time infinity, dose 1 mg/kg, route intravenous; details: plasma
[23] = Drug concentration in brain of human SUP-M2 cells xenografted SCID mouse at 30 mg/kg, po measured after 12 hrs; assay type: ADME, organism-based; parameters: dose 30 mg/kg, route oral; details: read-out: Drug uptake
[24] = Clearance in Sprague-Dawley rat at 1 mg/kg, iv; assay type: ADME, organism-based; parameters: dose 1 mg/kg, route intravenous; details: in vivo
[25] = AUC (0 to infinity) in Sprague-Dawley rat at 5 mg/kg, po; assay type: ADME, organism-based; parameters: time infinity, dose 5 mg/kg, route oral; details: plasma
[26] = Plasma concentration in human SUP-M2 cells xenografted SCID mouse at 30 mg/kg, po measured after 12 hrs; assay type: ADME, organism-based; parameters: dose 30 mg/kg, route oral
[27] = Cmax in Sprague-Dawley rat at 5 mg/kg, po; assay type: ADME, organism-based; parameters: dose 5 mg/kg, route oral; details: in vivo
[28] = Half life in Sprague-Dawley rat at 1 mg/kg, iv; assay type: ADME, organism-based; parameters: dose 1 mg/kg, route intravenous; details: in vivo
[29] = Drug concentration in brain of human SUP-M2 cells xenografted SCID mouse at 30 mg/kg, po measured after 24 hrs; assay type: ADME, organism-based; parameters: dose 30 mg/kg, route oral; details: read-out: Drug uptake
[30] = Tmax in Sprague-Dawley rat at 5 mg/kg, po; assay type: ADME, organism-based; parameters: dose 5 mg/kg, route oral; details: in vivo
[31] = Volume of distribution in Sprague-Dawley rat at 1 mg/kg, iv; assay type: ADME, organism-based; parameters: dose 1 mg/kg, route intravenous; details: in vivo
[32] = Plasma concentration in human SUP-M2 cells xenografted SCID mouse at 30 mg/kg, po measured after 24 hrs; assay type: ADME, organism-based; parameters: dose 30 mg/kg, route oral
SUP-M2 [33] = test: Antitumor activity against human SUP-M2 cells xenografted in SCID mouse assessed as induction of tumor regression at 30 mg/kg, po BID for 10 days; assay type: functional, organism-based; parameters: dose 30 mg/kg
SUP-M2 [34] = test: Antitumor activity against human SUP-M2 cells xenografted in SCID mouse assessed as induction of tumor regression at 55 mg/kg, po BID for 10 days; assay type: functional, organism-based; parameters: dose 55 mg/kg

half-life [1]: > 40 min | half-life [2]: 22 min | half-life [3]: 18 min | half-life [4]: > 40 min
Structure (SMILES): COc1cc(C2CCN(C)CC2O)ccc1Nc1ncc2ccc(-c3ccccc3OC)n2n1 (racemic)

half-life [1]: 34 min | half-life [2]: 7 min | half-life [3]: > 40 min | solubility [5]: 2 µg/mL (≈ 3.98 µM) | half-life [4]: 19 min
Structure (SMILES): COc1cc([C@@H]2CCN(CC(N)=O)C[C@@H]2O)ccc1Nc1ncc2ccc(-c3ccccc3OC)n2n1 (relative stereo)

half-life [1]: > 40 min | half-life [2]: > 40 min | half-life [3]: > 40 min | half-life [4]: > 40 min
Structure (SMILES): COc1cc([C@@H]2CCNC[C@@H]2O)ccc1Nc1ncc2ccc(-c3ccccc3OC)n2n1 (relative stereo)

Structure (SMILES): COc1cc([C@@]2(O)CCN(CC(N)=O)C[C@@H]2O)ccc1Nc1ncc2ccc(-c3ccccc3N(C)S(C)(=O)=O)n2n1
half-life [1]: 26 min | half-life [2]: 8 min | half-life [3]: > 40 min | solubility [5]: ≥ 33 µg/mL | half-life [4]: 32 min

Structure (SMILES): COc1cc([C@@]2(O)CCN(C)C[C@@H]2O)ccc1Nc1ncc2ccc(-c3ccccc3OC)n2n1 (relative stereo)
half-life [1]: > 40 min | half-life [2]: 32 min | half-life [3]: > 40 min | IC50 [6]: Active | half-life [4]: > 40 min

Drug uptake (Brain [9]): 1217 ng/g | IC50 (Cytochrome P450 3A4): 12 µM | IC50 (Cytochrome P450 1A2): > 30 µM | concentration at 16 h [10]: 567 ng/mL | IC50 (Cytochrome P450 2C9): 19 µM | IC50 (Cytochrome P450 2D6): > 30 µM | concentration at 16 h [11]: 16100 ng/g | IC50 (Cytochrome P450 2C19): 17 µM | Cp (Plasma [14]): 407 ng/mL | Drug uptake (Brain [15]): 3150 ng/g | Cp (Plasma [16]): 573 ng/mL
Structure (SMILES): COc1cc([C@H]2CCN(CCO)C[C@@H]2O)ccc1Nc1ncc2ccc(-c3ccccc3OC)n2n1 [listing 1 of 2 here]
Activity (Mus musculus [7]): Non-toxic | Activity (Mus musculus [8]): Non-toxic | IC50 [6]: 6.8 µM | Activity (Mus musculus [12]): Non-toxic | Activity (Mus musculus [13]): Non-toxic

Structure (SMILES): COc1cc([C@@]2(O)CCN(CC(N)=O)C[C@@H]2O)ccc1Nc1ncc2ccc(-c3ccccc3OC)n2n1
half-life [1]: 31 min | half-life [2]: 17 min | half-life [3]: > 40 min | solubility [5]: ≥ 33 µg/mL | half-life [4]: > 40 min

concentration at 2 h [17]: 1030 ng/g | concentration at 16 h [10]: 51 ng/mL | concentration at 16 h [11]: 2210 ng/g | concentration at 2 h [18]: 355 ng/mL | concentration at 6 h [19]: 1160 ng/g | concentration at 6 h [20]: 148 ng/mL
Structure (SMILES): COc1cc(C2CCN(CCO)CC2O)ccc1Nc1ncc2ccc(-c3ccccc3OC)n2n1 (single isomer, unassigned; enantiomer 1)

half-life [1]: > 40 min | half-life [2]: > 40 min | half-life [3]: > 40 min | half-life [4]: > 40 min
Structure (SMILES): COc1cc([C@@]2(O)CCNC[C@@H]2O)ccc1Nc1ncc2ccc(-c3ccccc3OC)n2n1

concentration at 2 h [17]: 1650 ng/g | bioavailability [21]: 26% | AUC(0-inf) [22]: 371 ng·h/mL | half-life [1]: > 40 min | half-life [2]: > 40 min | half-life [3]: 37 min | concentration at 12 h [23]: 2520 ng/g | clearance [24]: 46 mL/min/kg | AUC(0-inf) [25]: 479 ng·h/mL | concentration at 12 h [26]: 164 ng/mL | solubility [5]: 50 µg/mL (≈ 102 µM) | Cmax [27]: 85 ng/mL | half-life [28]: 150 min | concentration at 2 h [18]: 389 ng/mL | half-life [4]: > 40 min | concentration at 24 h [29]: 1580 ng/g | concentration at 6 h [19]: 1770 ng/g | Tmax [30]: 6 h | Vd [31]: 9.9 L/kg | concentration at 6 h [20]: 201 ng/mL | concentration at 24 h [32]: 19 ng/mL
Structure (SMILES): COc1cc([C@@H]2CCN(CCO)C[C@@H]2O)ccc1Nc1ncc2ccc(-c3ccccc3OC)n2n1 (racemic)

half-life [1]: > 40 min | half-life [2]: 25 min | half-life [3]: > 40 min | half-life [4]: > 40 min
Structure (SMILES): COc1cc([C@@]2(O)CCNC[C@@H]2O)ccc1Nc1ncc2ccc(-c3ccccc3N(C)S(C)(=O)=O)n2n1

Structure (SMILES): COc1cc([C@H]2CCN(CCO)C[C@@H]2O)ccc1Nc1ncc2ccc(-c3ccccc3OC)n2n1 [listing 2 of 2 here]
inhibition (SUP-M2 [33]): Active | inhibition (SUP-M2 [34]): Active

concentration at 2 h [17]: 1960 ng/g | bioavailability [21]: 31% | AUC(0-inf) [22]: 459 ng·h/mL | half-life [1]: > 40 min | half-life [2]: 30 min | half-life [3]: > 40 min | concentration at 12 h [23]: 2670 ng/g | clearance [24]: 39 mL/min/kg | AUC(0-inf) [25]: 708 ng·h/mL | concentration at 12 h [26]: 213 ng/mL | Cmax [27]: 97 ng/mL | half-life [28]: 192 min | concentration at 2 h [18]: 523 ng/mL | half-life [4]: > 40 min | concentration at 24 h [29]: 1280 ng/g | concentration at 6 h [19]: 3930 ng/g | Tmax [30]: 4 h | Vd [31]: 10.3 L/kg | concentration at 6 h [20]: 361 ng/mL | concentration at 24 h [32]: 55 ng/mL
Structure (SMILES): COc1cc([C@H]2CCN(CCO)C[C@@H]2O)ccc1Nc1ncc2ccc(-c3ccccc3OC)n2n1 (relative stereo)
